Results on 34 compounds are retold here after US5916566A, “Use of benzoin gum to inhibit P-glycoprotein-mediated resistance of pharmaceutical compounds” (AvMax, Inc., priority 1998, dated 1999).

Molecules are shown by their SMILES. Like-named read-outs stand apart in the source and are kept apart here.

This data set relates to rat cytochrome P4503A. Particulars: for % inhibition (0.0001%): oil ingredient at 0.0001 wt % (Table 2); for % inhibition (0.001%): oil ingredient at 0.001 wt % (Table 2); for % inhibition (0.01%): oil ingredient at 0.01 wt % (Table 2).

Consider `C=C(C)[C@H]1CC=C(C)C(=O)C1` [Carvone-(S)-(+), p-Mentha-6,8-dien-2-one], for which the “% inhibition (0.0001%)” value was 30% and the “% inhibition (0.001%)” value is listed as 70.5%.
The matching figures for `CC(C)=C1CC[C@@H](C)CC1=O` [Pulegone-(R)-(+), p-Menth-4-(8)-en-3-one]: -17% and 31%.
In the case of `Cc1ccc(C(C)C)c(O)c1` [Thymol, 2-isoPropyl-5-methylphenol], the “% inhibition (0.001%)” value is listed as 56% and the “% inhibition (0.01%)” value is listed as 100%.
On to `C=CCc1ccc(OC)cc1` [Entragole, 4-Allylanisole], for which the “% inhibition (0.0001%)” value came out at 7%, the “% inhibition (0.001%)” value is given as 69.2% and the “% inhibition (0.01%)” value was 100%.
Take `CCOc1cc(C=O)ccc1O` [Ethyl Vanillin, 3-Ethoxy-4-hydroxybenzoledhyde]: the “% inhibition (0.01%)” value amounted to 58%.
As for `CC1=CCC2C(C1)C2(C)C` (stereo not drawn) [Carene-3-(Δ)], the “% inhibition (0.0001%)” value was -26% and the “% inhibition (0.001%)” value was 34%.
As for `CC12CCC(CC1)C(C)(C)O2` [Eucatyptol, 1,8-Cincole], the “% inhibition (0.0001%)” value worked out at 38%, the “% inhibition (0.001%)” value is 64% and the “% inhibition (0.01%)” value was 88%.
As for `C=C(C)C1CC=C(C)C(O)C1` (single isomer, unassigned) [Carveol-(-), p-Mentha-6,8-dien-2-ol], the “% inhibition (0.0001%)” value is 2% and the “% inhibition (0.001%)” value turned out to be 60%.
With `O=C/C=C/c1ccccc1` [Cinnamic Aldehyde, trans-, 3-Phenylpropenaldehyde], the “% inhibition (0.001%)” value was 29.0% and the “% inhibition (0.01%)” value worked out at 78%.
As for `C=C(C)[C@@H]1CC=C(C)CC1` [Limonene-(S)-(-), p-Mentha-1,8-diene], the “% inhibition (0.001%)” value is recorded as 30% and the “% inhibition (0.01%)” value was found to be 82.3%.
Taken in the same sequence, the figures for `COC(=O)c1ccccc1O` [Methyl Salicylate, Methyl-2-hydroxybenzoate] were 12% and 86%.
`CC1(C)C(=O)[C@]2(C)CC[C@H]1C2` [Fenchone-(IR)-(-), 1,3,3-Trimethylbicyclo[2.2.1]heptan-2-one]: the “% inhibition (0.0001%)” value was 14% and the “% inhibition (0.001%)” value is on record as 38%.
On to `CC(C)=CCC/C(C)=C/C=O` [Citral], for which the “% inhibition (0.0001%)” value turned out to be 44%, the “% inhibition (0.001%)” value stood at 54% and the “% inhibition (0.01%)” value is 99%.
On to `CC1=CC=C(C(C)C)CC1` [Terpinene-α, p-Mentha-1,3-diene], for which the “% inhibition (0.0001%)” value is reported as -6% and the “% inhibition (0.001%)” value was 28%.
Turning to `CC(=O)OC/C=C(\C)CCC=C(C)C` [Geranyl Acetate, trans-3,7-Dimethyl-2,,6-octadien-1-yl acetate], the “% inhibition (0.001%)” value was 51.5% and the “% inhibition (0.01%)” value came out at 73%.
For `CC(=O)N1CCN(c2ccc(OCC3COC(Cn4ccnc4)(c4ccc(Cl)cc4Cl)O3)cc2)CC1` (stereo not drawn) [Ketoconazole, reference compound], the “% inhibition” value is 8% (reference compound at 0.000001 % (Table 3)), 20% (reference compound at 0.000005 % (Table 3)), 42% (reference compound at 0.00001 % (Table 3)) and 100% (reference compound at 0.00005 % (Table 3)).
On to `C=C1CC/C=C(\C)CC[C@@H]2[C@@H]1CC2(C)C` [Caryophyllene, trans-(-), β Caryophyllene], for which the “% inhibition (0.0001%)” value worked out at 26% and the “% inhibition (0.001%)” value stood at 85%.
The matching figures for `C=C1C2CCC(C2)C1(C)C` (single isomer, unassigned) [Camphene-(+), 2,2-Dimethyl-3-methylenebicyclo[2.2.1]heptane]: -49% and 12.4%.
`Cc1ccc(C(C)C)cc1O` [Carvacrol, 5-isoPropyl-2-methylphenol]: the “% inhibition (0.0001%)” value is reported as 11%, the “% inhibition (0.001%)” value is 93% and the “% inhibition (0.01%)” value came to 97%.
`CCOC(=O)/C=C/c1ccccc1` [Ethyl Cinnamate, trans-]: the “% inhibition (0.0001%)” value is reported as -13% and the “% inhibition (0.001%)” value is listed as -16%.
Regarding `C=CCc1ccc(O)c(OC)c1` [Eugenol, 4-Allyl-2-methoxyphenol], the “% inhibition (0.0001%)” value is given as 9.8%, the “% inhibition (0.001%)” value amounted to 66% and the “% inhibition (0.01%)” value turned out to be 100%.
Turning to `COC(=O)c1ccccc1N` [Methyl Anthranilate, Methyl 2-aminobenzoate], the “% inhibition (0.0001%)” value was -7% and the “% inhibition (0.001%)” value was determined as 23%.
As to `C=CC(C)(CCC=C(C)C)OC(C)=O` (stereo not drawn) [Linalyl Acetate, 3,7-Dimethyl-1,6-octadien-3-yl acetate], the “% inhibition (0.001%)” value turned out to be 55.8% and the “% inhibition (0.01%)” value was found to be 100%.
`C=C1CC[C@H]2C[C@@H]1C2(C)C` [Pinene-(IS)-(-)-β, 6,6-Dimethyl-2-mehylenebicyclo[3.1.1]heptane]: the “% inhibition (0.0001%)” value is -10%, the “% inhibition (0.001%)” value is 60% and the “% inhibition (0.01%)” value came to 88%.
With `C/C=C/c1ccc(OC)cc1` [Anethole, trans-, 4-Propenylanisole], the “% inhibition (0.001%)” value is 53% and the “% inhibition (0.01%)” value worked out at 100%.
For the compound `CC1=CCC(C(C)(C)O)CC1` (stereo not drawn) [Terpincol-α, p-Menth-1-en-8-ol], the “% inhibition (0.0001%)” value was determined as 13.4%, the “% inhibition (0.001%)” value turned out to be 86% and the “% inhibition (0.01%)” value is reported as 100%.
Taken in the same sequence, the figures for `C=CC(C)(O)CCC=C(C)C` (racemic) [Linalcol-(±), 3,7-Dimethyl-1,6-octadien-3-ol] were 41%, 72.0% and 85%.
The matching figures for `CC1(C)[C@H]2CC[C@]1(C)[C@H](O)C2` [Borneol-(IS)-endo(-), 1,7,7-Trimethylbicyclo[2.2.1]heptan-2-ol]: 20%, 80% and 100%.
Taken in the same sequence, the figures for `CC(C)=CCCC(C)CCO` (stereo not drawn) [Citronellal-(DL)-(β), 3,7-Dimethyl-6-octen-1-ol] were 41%, 86% and 95%.
With `COc1cc(CNC(=O)CCCC/C=C/C(C)C)ccc1O` [Capsaicin, trans-8-Methyl-N-vanillyl-6 nonenamide], the “% inhibition (0.0001%)” value amounted to 27% and the “% inhibition (0.001%)” value is reported as 68%.
Consider `C=C(C)[C@@H]1CC=C(C)C(=O)C1` [Carvone-(R)-(-), p-Mentha-6,8-dien-2-one], for which the “% inhibition (0.0001%)” value amounted to 27%, the “% inhibition (0.001%)” value stood at 69% and the “% inhibition (0.01%)” value is listed as 100%.
`C=CC(=C)CCC=C(C)C` [Myrcene-β, 7-Methyl-3-methylene-1,6-octadiene]: the “% inhibition (0.0001%)” value is on record as 0% and the “% inhibition (0.001%)” value came out at 13%.
For the compound `CC12CCC(CC1=O)C2(C)C` (racemic) [Camphor-(±), 1,7,7-Trimethylbicyclo[2.2.1]heptan-2-one], the “% inhibition (0.001%)” value is listed as 57% and the “% inhibition (0.01%)” value came to 87%.
Take `CC1=CCC(O)(C(C)C)CC1` (stereo not drawn) [Terpinen-4-ol, p-Menth-1-en-4-ol]: the “% inhibition (0.0001%)” value is reported as 3.81%, the “% inhibition (0.001%)” value is reported as 80% and the “% inhibition (0.01%)” value is on record as 100%.

A word on the % inhibition: it is the drop in the measured response relative to a control, in per cent. Higher therefore signals strong suppression.
